“Also recorded” adds a separate entry of the source.
Key:
[1] = tested on: Rat Medial Meniscal Tear Model; test: Effect of dose frequency of compound A in a rat medial meniscal tear model; assay type: in vivo, Lewis rats
Procedure: The vehicle was prepared separately, then added to aliquots of compound A powder, and the mixture was then vortexed until it becomes a clear solution. Dosing solutions were prepared for doses of 3.5 and 0.35 μg/kg (100 μM and 10 μM respectively). Dosing volume was set to 30 μL/knee. Dosing solutions were prepared fresh weekly.
Fourteen-week-old male Lewis rats (Charles River, Kingston, N.Y.) were in the weight range of 300-320 g at the start of the study
Rats were sorted based on body weight into 8 study groups of 15 rats. They were surgerized and enrolled in a staggered fashion across one week (20 animals per day for 6 days). Briefly, animals were anesthetized with a ketamine/xylazine cocktail (50 mg/kg Ketaved—Henry Schein, and 5 mg/kg Xyalzine—AniSed respectively) by intraperitoneal injection, administered appropriate analgesics (Flunixin, 5 mg/kg subcutaneous injection), and the surgical site shaved and disinfected. A small incision was made on the medial right hind knee to expose the collateral ligament. The collateral ligament was transected and the joint capsule opened sufficiently to expose the medial meniscus. The meniscus was transected completely, then the skin incision was closed, and pressure applied to the wound to prevent hematoma development. Animals were allowed to recover on a heated blanket and were returned to their home cage. Sham procedures were carried out in a similar fashion, except the medial meniscus was not cut. All surgical procedures were performed aseptically and all procedures were approved by the institute IACUC. Animals were monitored daily for the following week for postoperative care prior to dosing. Any animals with atypical healing (bruising/hematoma) were removed from the study and replaced with spare animals.
Animals were weighed weekly at the time of dosing (8-10 am), and a standardized dose of 30 μl of either vehicle or compound was administered via injection into the intra-articular space according to the regimens outlined above (groups A, B, E and H dosed once weekly, groups C and F dosed every other week, and groups D and G dosed once for the duration of the study). Animals were dosed using a Hamilton syringe with a 27 G needle attached. On study day 28, animals were euthanized, a terminal blood sample collected, and knees were harvested and placed in formalin jars for histology analysis and pathology scoring.
Analysis of the knee joint histology was performed by Bolder BioPATH. A variety of measurements to characterize the lesions were performed to score the joints based on lesion depth, severity, and overall size.

[2] = tested on: Rat Medial Meniscal Tear Model; test: Dose range study of compound A in a rat medial meniscal tear model; assay type: in vivo, Lewis rats
Procedure: The vehicle was prepared separately and then added to aliquots of compound A powder, after which the mixture was vortexed and becomes a clear solution. Dosing solutions were prepared for doses ranging from 30 μM to 0.3 μM. Dosing volume was set to 30 μL/knee. Dosing solutions were prepared fresh for each dose. Dosing solutions were verified at the end of the study. The positive control compound FGF-18 stock was reconstituted in 5 mM Tris, pH 8.0 as per manufacturer's instructions. The FGF-18 stock was further diluted in saline to a final concentration of 0.167 mg/mL. Fresh dilutions were prepared twice a week at the time of injection.
Fourteen-week-old male Lewis rats (Charles River, Kingston, N.Y.) were in the weight range of 285-327 g.
Rats were sorted based on body weight into 8 study groups of 15 rats. They were surgerized and enrolled in a staggered fashion across one week (enroll 20 animals per day for 6 days). Animals were anesthetized with a ketamine/xylazine cocktail (50 mg/kg Ketaved—Henry Schein, and 5 mg/kg Xyalzine AniSed, respectively) by intraperitoneal injection, administered appropriate analgesics (Flunixin, 5 mg/kg subcutaneous injection), and the surgical site shaved and disinfected. A small incision was made on the medial right hind knee to expose the collateral ligament. The collateral ligament was transected and the joint capsule opened sufficiently to expose the medial meniscus. The meniscus was transected completely, then the skin incision was closed, and pressure applied to the wound to prevent hematoma development. Animals were allowed to recover on a heated blanket and were returned to their home cages. Sham procedures were carried out in a similar fashion except the medial meniscus was not cut. All surgical procedures were performed aseptically and all procedures were approved by the IACUC. Animals were monitored daily for the following week for postoperative care prior to dosing. Any animals with atypical healing (bruising/hematoma) were removed from the study and replaced with spare animals. Animals were enrolled into the following groups: […]

[3] = tested on: Canine Model of Osteoarthritis; test: Efficacy of compound A in a canine model of osteoarthritis; assay type: in vivo, Beagle dogs
Procedure: The clear solution was then filtered in a 0.45 μm filter prior to intraarticular dose. Dosing solution was prepared fresh on the day of dosing.
Twelve to fifteen-month-old female naïve Beagle dogs were obtained from Marshall BioResouces (North Rose, N.Y.) with a weight range of 5.4 to 9.3 kilograms.
The goal was to sort and ensure that behavioral characteristics were shared among all groups, so that the activity level and use of the joints while not in regimented exercise would be uniform between groups. In addition to sorting by temperament, animals were also sorted by body weights, with equal distribution between study groups. Animals were acclimated to an exercise regimen of 1 hour of walking/running/playing prior to study start.
Animals were food deprived prior to surgery, anesthetized using propofol (6 mg/kg, IV), and maintained on isoflurane (3-4%) in oxygen (2 L/min) for the duration of the procedure (10-15 minutes). The right rear knee was shaved and aseptically prepared. A medial skin incision was made to expose the collateral ligament. A portion of the medial meniscus was cut (a wedge roughly half the width of the medial meniscus was removed). The joint capsule and subcutis were closed with sutures, and skin closed with wound clips. Sham animals were treated in the same manner except for the medial meniscus partial transection. All animals were allowed to recover for 10-11 days prior to dosing. Three days after surgery, all animals began an exercise regimen of one hour of continuous exercise (walking/running/playing), to ensure that the animals were using the surgerized leg and to allow for a more uniform development of lesions across a group of differently tempered dogs.
All animals were exercised 5 days a week for an hour for the duration of the study. At study day 10/11, animals began receiving weekly injections of either compound or vehicle into the surgerized joint. Blood samples were also taken pre-dose for all animals for compound determination. Animals received doses at day 10, 17, 24, 31, 38, and 45 post surgery. All intraarticular doses were standardized to 0.5 mL injections into the joint capsule via injection through the patellar ligament.
On day 52, animals received a terminal blood sample and were euthanized. Plasma samples were used for biomarker determination. Urine and synovial fluid was collected at necropsy, and the knees were harvested for histology and pathology analysis.
Osteoarthritic lesions were scored based on lesion size, depth, severity and changes in subchondral bone and osteophyte formation. Both the femur and the tibia on either side of the meniscal cut were examined. Statistical analysis used Student's two-tailed test or Mann-Whitney U Test (non-parametric).
For terminal plasma samples, biomarker ELISAs were run to quantify levels of PIINP. The kit procedures were followed as per manufacturer's instructions. Data were analyzed with a Student's t-test.

[4] = Intravenous acute toxicity study in Crl:CD(SD) rat (toxicokinetics); assay type: in vivo; conditions: for AUC(0-t) / Cmax / half-life: Crl:CD(SD), rat, plasma; for Tlast: median
Procedure: For toxicokinetic evaluation, an additional 3 rats/sex/group were added for the 1 or 2.4 mg/kg dose groups. Toxicokinetic parameters were determined, where feasible, by non-compartmental analysis.

in vivo = conditions: male, Crl:CD(SD), rat, 2.1 ug
[5] = 0.035 mg/knee IA weekly for 6 weeks, vs vehicle
[6] = female rats, single IV 1 mg/kg, mean
[7] = female rats, single IV 2.4 mg/kg, mean
[8] = male rats, single IV 1 mg/kg, mean
[9] = male rats, single IV 2.4 mg/kg, mean

COCCc1ccc(NC(=O)c2ccccc2NS(C)(=O)=O)cc1 [Compound A, N-(4-(2-methoxyethyl)phenyl)-2-(methylsulfonamido)benzamide]
combined cartilage degeneration widths with scores from mild to severe ([1]; 10 μM (0.105 μg/knee) IA once every other week, vs vehicle): statistically significant improvement
substantial cartilage degeneration width ([1]; 10 μM (0.105 μg/knee) IA once weekly or once every other week, vs vehicle): improvement
mild-to-severe degeneration widths ([1]; 10 μM (0.105 μg/knee) IA weekly): trend towards a reduction
adverse effects ([1]; IA, any dosing schedule (once weekly, once every other week, once per study), 100 μM or 10 μM): no adverse effects
progression of cartilage degeneration ([1]; dosing once every four weeks): did not demonstrate an effect
width of cartilage lesions where greater than 10% of the cartilage is damaged or lost ([1]; dosing once every other week): significant reduction
most severe cartilage lesions ([1]; not statistically significant): trend towards an improvement
total joint scores without the femur ([2]; 30 μM (0.315 μg/knee) IA once every other week, vs vehicle): significantly improved; also recorded: significant improvement
degree of improvement of total joint score compared with positive control ([2]; 30 μM dose, FGF-18 5 μg/injection twice a week): on par with FGF-18
adverse effects ([2]; IA once every other week, any of the doses tested (30, 10, 3, 1, 0.3 μM)): no adverse effects
degree of substantial cartilage degeneration in the femur [3, 5]: significantly improved; also recorded: significant reduction
level of bone sclerosis [3, 5]: reduced; also recorded: improved
width of total cartilage degeneration (all severities), femur [3, 5]: no effect
tibial cartilage damage ([3]; effect not statistically significant): less severe
circulating PIINP in plasma (ELISA) ([3]; terminal samples 1 week post final dose, vs vehicle): significantly elevated
AUC(0-t) [4, 6]: 2900 ng·h/mL
Cmax [4, 6]: 9190 ng/mL
half-life [4, 6]: 28.8 min
Cmax [4, 7]: 9020 ng/mL
half-life [4, 7]: 31.8 min
AUC(0-t) ([4]; female rats, single IV 2.4 mg/kg, mean, t = 4 hours): 5690 ng·h/mL
AUC(0-t) [4, 8]: 2500 ng·h/mL
Cmax [4, 8]: 11200 ng/mL
half-life [4, 8]: 22.2 min
AUC(0-t) [4, 9]: 4510 ng·h/mL
Cmax [4, 9]: 9430 ng/mL
half-life [4, 9]: 24 min
half-life ([4]; both sexes, single IV administration, range over groups): 18 to 36 min
Tlast ([4]; female rats, single IV 1 mg/kg): 2 h
Tlast ([4]; female rats, single IV 2.4 mg/kg): 4 h
mean AUC0-t, higher dose compared to 1 mg/kg ([4]; females, single IV): ~2.0 fold
Tlast ([4]; male rats, single IV 1 mg/kg): 2 h
Tlast ([4]; male rats, single IV 2.4 mg/kg): 2 h
mean AUC0-t, higher dose compared to 1 mg/kg ([4]; males, single IV): approximately 1.8 fold
gender differences in systemic exposure (Cmax and AUC0-t) ([4]; single IV, either dosing regimen): no notable gender differences
Cmax (in vivo): 13.8 ng/mL
